{
  "source": "patent US20140230091A1",
  "about": "“MODIFIED PLANTS WITH INCREASED OIL CONTENT” (BROOKHAVEN SCIENCE ASSOCIATES, LLC, priority 2011, published 2014)",
  "tested_on": "Brassica napus cv Jet Neuf suspension cell cultures",
  "assay": "Cell culture growth and analysis of B. napus suspension cells fed Tween-80",
  "format": "cell-based",
  "conditions": "concentrations up to 10 mM",
  "method": "Brassica napus cv Jet Neuf suspension cell cultures were grown in NLN medium (Lichter 1982, Z. Pflanzenphysiol, 105, 427-434) with modifications (Shi et al. 2008, Plant Cell Tiss Org, 92 131-139). Cells were grown shaking at 160 rpm at 25° C. in either 50 mL or 100 mL volumes (in 125 mL or 250 mL flasks, respectively) under constant fluorescent light at 50 […]. Medium was refreshed every 48 h for experiments lasting longer than two days. Tween-esters were obtained from Sigma (St. Louis, Mo. USA). A 150 mM stock solution was made by dissolving 9.8 g in 50 mL of water and it was filter sterilized before addition to cultures. Subculturing was done every eight days and new cultures were inoculated with about 200 mg of cells. Cells were harvested by filtering with a Buchner funnel, were rinsed three times with distilled water, and were frozen immediately in liquid N2 in preweighed aluminum foil pouches. Dry weight to fresh weight ratio was determined by lyophilizing a known fresh weight of cells. For SDS-PAGE, proteins were extracted in 3 volumes (w/v) of 50 mM Tris-Cl, pH 7.5, 10 mM KCl, 5 mM MgCl2, 1 mM EDTA, 1 mM DTT, 0.1% Triton X-100, and were quantified by Bradford assay.\nIn order to study the feedback regulation of fatty acid synthesis it was necessary to first establish conditions where fatty acids could be fed while minimizing any negative pleiotropic effects. […]",
  "data": [
    {"substance": "Tween-80", "values": [
      {"measurement": "effect on growth rate", "value": "no effect"}
    ]}
  ]
}
